Data taken from patent US20080213863A1, “Method of Controlling Viral Outbreak” (priority 2003, published 2008).

Key:
[1] = system: CD4+ HIV-susceptible target cells; test: Depletion of total cellular cholesterol by 2-OH-β-CD treatment; format: cell-based; conditions: 10 to 20 mM for 1 hour at 37° C., then washing
Source text: The role of lipid rafts in the HIV-1 fusion process was examined by treating CD4+ HIV-susceptible target cells with 2-OH-β-CD to deplete membrane cholesterol and disperse lipid rafts.

HIV-1 [2] = test: HIV-1-mediated syncytium formation; format: cell-based; conditions: treatment of target cells
HIV-1 [3] = test: Capture of HIV-1 by MAbs against host and viral proteins, measured as percentage of total p24; format: cell-based
Source text: By removing cholesterol, 2-OH-β-CD is believed to partially perturb organized lipid rafts, resulting in dispersal of their components (Ilangumaran and Hoessli, Biochem. J. 335:433-440, 1998).

HIV-1 [4] = test: Infection of primary cells and cell lines by HIV-1 strains; format: cell-based; conditions: primary cells and cell lines treated
HIV-1 [5] = test: HIV-1 binding to cells; format: cell-based; conditions: treatment of the virus or cells
Source text: (§1) As described above, budding of HIV-1 particles occurs at lipid rafts, which are characterized by a distinct lipid composition that includes high concentrations of cholesterol, sphingolipids, and glycolipids. Since cholesterol plays a key role in the entry of some other viruses, the role in HIV-1 entry of cholesterol and lipid rafts in the plasma membrane of susceptible cells was investigated. […] A β-CD derivative, 2-hydroxypropyl-β-cyclodextrin (2-OH-β-CD), was used to deplete cellular cholesterol and disperse lipid rafts. As disclosed herein, removal of cellular cholesterol rendered primary cells and cell lines highly resistant to HIV-1-mediated syncytium formation and to infection by both CXCR4- and CCR5-specific strains of HIV-1 virus. […] Cholesterol depletion also made cells resistant to SDF-1-induced binding to ICAM-1 through LFA-1.

CD4; chemokine receptors = test: CD4 expression and antibody-mediated internalization of chemokine receptors; format: cell-based; conditions: treatment of the virus or cells
LFA-1 = test: SDF-1-induced binding of cells to ICAM-1 through LFA-1; format: cell-based; conditions: cholesterol-depleted cells
Source text: as §1

[6] = after treating cells, percentage of total p24

Substance: 2-hydroxypropyl-β-cyclodextrin [2-OH-β-CD]
- depletion of total cellular cholesterol [1]: greater than 70%
- syncytium formation of primary cells and cell lines (HIV-1 [2]): blocked syncytium formation
- CD45 capture of HIV-1 (HIV-1 [3]; after treating cells): remained unaffected
- capture of HIV-1 by MAb against CD59 (HIV-1 [3]; [6]): decreased substantially
- capture of HIV-1 by MAb against gp41 (HIV-1 [3]; [6]): decreased substantially
- overall cellular release of p24 (HIV-1 [3]; after treatment): increased
- infection by CXCR4-specific and CCR5-specific HIV-1 strains (HIV-1 [4]): rendered resistant
- HIV-1 binding (HIV-1 [5]): partially reduced
- CD4 expression (CD4; chemokine receptors): no effect
- antibody-mediated internalization of chemokine receptors (CD4; chemokine receptors): highly sensitive
- SDF-1-induced binding to ICAM-1 through LFA-1 (LFA-1): resistant
- cell growth after treatment (treated cells): continued to grow normally
- Ca2+ flux responses to anti-CD3 MAb (Jurkat cells): still showed Ca^2+ flux responses
